Usually inhibition stands for how much of the control response was suppressed. Higher therefore signals a response far below the control.

The results in this text go back to ChEMBL document CHEMBL4813932, “Terpenoid Constituents of Perovskia artemisioides Aerial Parts with Inhibitory Effects on Bacterial Biofilm Growth” (2021).

Molecules are shown by their SMILES.

Test in all cases: microbe, parasite or virus in culture
What all share (format): functional

Test [1] relates to Staphylococcus aureus. Particulars: ATCC 25923, time 48 hrs.
Description: Antibiofilm activity against Staphylococcus aureus ATCC 25923 assessed as inhibition of bacterial metabolism within the biofilm at 8 ug/ml measured after 48 hrs by MTT assay relative to control
The test system of test [2] is Listeria monocytogenes. To be noted: ATCC 7644, time 48 hrs.
Description: Antibiofilm activity against Listeria monocytogenes ATCC 7644 assessed as inhibition of biofilm formation at 4 ug/ml measured after 48 hrs by crystal violet staining based assay relative to control
The test system of test [3] is Staphylococcus aureus. Particulars: ATCC 25923, time 48 hrs. This is another data set of the same source.
Description: Antibiofilm activity against Staphylococcus aureus ATCC 25923 assessed as inhibition of bacterial metabolism within the biofilm at 4 ug/ml measured after 48 hrs by MTT assay relative to control
In test [4] the test system is Escherichia coli. To be noted: DSM 8579, time 48 hrs.
Description: Antibiofilm activity against Escherichia coli DSM 8579 assessed as inhibition of bacterial metabolism within the biofilm at 40 ug/ml measured after 48 hrs by MTT assay relative to control
Test [5] relates to Escherichia coli. To be noted: DSM 8579, time 48 hrs. The source holds these as a separate data set.
Description: Antibiofilm activity against Escherichia coli DSM 8579 assessed as inhibition of biofilm formation at 40 ug/ml measured after 48 hrs by crystal violet staining based assay relative to control
Test [6] concerns Staphylococcus aureus. To be noted: ATCC 25923, time 48 hrs. This is another data set of the same source.
Description: Antibiofilm activity against Staphylococcus aureus ATCC 25923 assessed as inhibition of biofilm formation at 8 ug/ml measured after 48 hrs by crystal violet staining based assay relative to control
Test [7] concerns Pseudomonas aeruginosa. To be noted: ATCC 50071, time 48 hrs.
Description: Antibiofilm activity against Pseudomonas aeruginosa ATCC 50071 assessed as inhibition of bacterial metabolism within the biofilm at 4 ug/ml measured after 48 hrs by MTT assay relative to control
Test [8] relates to Escherichia coli. Particulars: DSM 8579, time 48 hrs. The source holds these as a separate data set.
Description: Antibiofilm activity against Escherichia coli DSM 8579 assessed as inhibition of biofilm formation at 80 ug/ml measured after 48 hrs by crystal violet staining based assay relative to control
Test [9] has as its system Listeria monocytogenes. Particulars: ATCC 7644, time 48 hrs. This is another data set of the same source.
Description: Antibiofilm activity against Listeria monocytogenes ATCC 7644 assessed as inhibition of biofilm formation at 8 ug/ml measured after 48 hrs by crystal violet staining based assay relative to control
The subject of test [10] is Listeria monocytogenes. To be noted: ATCC 7644, time 48 hrs. This is another data set of the same source.
Description: Antibiofilm activity against Listeria monocytogenes ATCC 7644 assessed as inhibition of bacterial metabolism within the biofilm at 4 ug/ml measured after 48 hrs by MTT assay relative to control
Test [11] deals with Pseudomonas aeruginosa. To be noted: ATCC 50071, time 48 hrs. The source holds these as a separate data set.
Description: Antibiofilm activity against Pseudomonas aeruginosa ATCC 50071 assessed as inhibition of biofilm formation at 8 ug/ml measured after 48 hrs by crystal violet staining based assay relative to control
For test [12], the system named is Escherichia coli. Particulars: DSM 8579, time 48 hrs. The source holds these as a separate data set.
Description: Antibiofilm activity against Escherichia coli DSM 8579 assessed as inhibition of bacterial metabolism within the biofilm at 80 ug/ml measured after 48 hrs by MTT assay relative to control
Test [13] concerns Staphylococcus aureus. Particulars: ATCC 25923, time 48 hrs. This is another data set of the same source.
Description: Antibiofilm activity against Staphylococcus aureus ATCC 25923 assessed as inhibition of biofilm formation at 4 ug/ml measured after 48 hrs by crystal violet staining based assay relative to control
Test [14] deals with Pseudomonas aeruginosa. Particulars: ATCC 50071, time 48 hrs. The source holds these as a separate data set.
Description: Antibiofilm activity against Pseudomonas aeruginosa ATCC 50071 assessed as inhibition of biofilm formation at 4 ug/ml measured after 48 hrs by crystal violet staining based assay relative to control
In test [15] the test system is Listeria monocytogenes. To be noted: ATCC 7644, time 48 hrs. The source holds these as a separate data set.
Description: Antibiofilm activity against Listeria monocytogenes ATCC 7644 assessed as inhibition of bacterial metabolism within the biofilm at 8 ug/ml measured after 48 hrs by MTT assay relative to control
Test [16] relates to Pseudomonas aeruginosa. To be noted: ATCC 50071, time 48 hrs. This is another data set of the same source.
Description: Antibiofilm activity against Pseudomonas aeruginosa ATCC 50071 assessed as inhibition of bacterial metabolism within the biofilm at 8 ug/ml measured after 48 hrs by MTT assay relative to control

`CO[C@H]1c2cc(C(C)C)c(O)c(O)c2[C@@]23CCCC(C)(C)[C@@H]2[C@@H]1OC3=O`: the inhibition at 8 µg/mL in test [1] was determined as 22.9%; in test [6], 63.3%; in test [9], 23.8%; in test [11], 84.7%; in [15] it was 29.8%; in test [16] it was 30.9%. The inhibition at 4 µg/mL is 16.2% in test [2]; 9.4% in test [3]; 3.1% in [7]; 0% in test [10]; 23.5% in test [13]; 14.7% in [14]. The inhibition at 40 µg/mL amounted to 0% in test [4] and 32.9% in test [5]. Besides, the inhibition at 80 µg/mL in test [8] was found to be 47.4%; in test [12] it was 27.3%.
For `COc1c(C(C)C)cc2c(c1O)[C@@]1(C(=O)O)CCCC(C)(C)[C@@H]1CC2`, the inhibition at 8 µg/mL in test [1] amounted to 0%; in test [6], 72%; in [9], 81%; in [11] it was 81.2%; in test [15], 6.7%; in test [16] it was 71.6%. In addition, the inhibition at 4 µg/mL in test [2] came to 74.1%; in test [3], 0%; in test [7] it was 43.2%; in [10], 4%; in test [13], 31.9%; in test [14] it was 68.6%. Also, the figures for the inhibition at 40 µg/mL in test [4] and in test [5] were 67.2% and 3.2%, respectively. In addition, the inhibition at 80 µg/mL in test [8] is 66.3%; in test [12], 96.1%.
`CC1(C)C[C@H]2[C@H]1CC[C@]1(C)C[C@]2(O)CC[C@@H]1O`: the inhibition at 8 µg/mL is 48.6% in test [1]; 17.9% in test [6]; 25.7% in test [9]; 53.6% in test [11]; 42.2% in [15]; 24.6% in test [16]. The inhibition at 4 µg/mL was 8.7% in test [2]; 33.3% in test [3]; 0% in [7]; 31.1% in [10]; 0% in [13]; 42.4% in test [14]. For the same compound, the inhibition at 40 µg/mL in test [4] worked out at 38.3%; in test [5], 24.3%. Also, the inhibition at 80 µg/mL in test [8] is 71.9%; in [12], 57.8%.
Regarding `CC1(C)C[C@@H](O)C[C@](C)(O)/C1=C\C(=O)O`, the inhibition at 8 µg/mL stood at 49.3% in [1]; 31.5% in test [6]; 10.2% in [9]; 55.5% in [11]; 33.3% in test [15]; 35.7% in [16]. For the same compound, the inhibition at 4 µg/mL in test [2] came to 0%; in test [3], 44.7%; in test [7] it was 29.2%; in [10], 13.1%; in test [13], 12.6%; in test [14] it was 0%. The results for the inhibition at 40 µg/mL in test [4] and in test [5] were 14.2% and 28.6%, respectively. In addition, the inhibition at 80 µg/mL in [8] is 50.3%; in test [12], 38.6%.
Regarding `CC1(C)C[C@H](O)[C@]23CC[C@@H](O)[C@](C)(CC[C@@H]12)C3`, the inhibition at 8 µg/mL is 0% in test [1]; 0% in test [6]; 17.8% in [9]; 40% in [11]; 17.8% in test [15]; 40% in test [16]. In addition, the inhibition at 4 µg/mL is 8.7% in test [2]; 0% in [3]; 39.8% in [7]; 8.7% in test [10]; 0% in test [13]; 39.8% in test [14]. Further, the inhibition at 40 µg/mL in [4] was determined as 1.6%; in [5], 3.2%. The inhibition at 80 µg/mL turned out to be 45.4% in test [8] and 37.5% in test [12].
`CC(C)c1cc2c(c(O)c1O)C1=C(CC2)C(C)(C)CCC1=O` [SAGEONE]: the inhibition at 8 µg/mL was determined as 0% in test [1]; 0% in [6]; 0.9% in test [9]; 0% in test [11]; 0.9% in [15]; 0% in test [16]. Moreover, the inhibition at 4 µg/mL in [2], in [3], in [7], in test [10], in [13] and in test [14] was 0% throughout. The results for the inhibition at 40 µg/mL in test [4] and in test [5] were 6.8% and 13.7%, respectively. Moreover, the inhibition at 80 µg/mL in test [8] is 45.5%; in test [12], 24.6%.
Take `CC(=O)O[C@H]1CC(C)(C)[C@@H]2CC[C@]3(C)C[C@]12CC[C@H]3O`: the inhibition at 8 µg/mL in test [1] stood at 4.7%; in test [6], 16.4%; in [9], 23.3%; in [11], 45.9%; in [15] it was 29.4%; in test [16] it was 45.9%. For the same compound, the inhibition at 4 µg/mL in test [2] is 14.6%; in [3], 0%; in [7] it was 30.4%; in test [10], 20.6%; in [13], 3.2%; in test [14], 15.2%. The inhibition at 40 µg/mL in test [4] and in [5] was 0% each time. Also, the inhibition at 80 µg/mL in test [8] stood at 29.6%; in test [12] it was 42%.
With `C=CC(C)(O)C/C=C/C(C)(C)O` (stereo unspecified), the inhibition at 8 µg/mL in [1] is 44.4%; in test [6], 40.7%; in test [9], 85%; in test [11], 84.7%; in test [15], 38.1%; in test [16] it was 71.3%. The inhibition at 4 µg/mL in test [2] was 78%; in [3], 42.2%; in test [7], 68.1%; in [10] it was 9.1%; in test [13], 13.3%; in test [14] it was 75.9%. Moreover, the inhibition at 40 µg/mL in test [4] is 52%; in [5] it was 30.4%. For the same compound, the figures for the inhibition at 80 µg/mL in test [8] and in test [12] were 78.6% and 64%, respectively.
Regarding `C=C1CC/C=C(/C)[C@H](O)C[C@@H]2[C@@H]1CC2(C)CO` (stereo partly specified), the inhibition at 8 µg/mL in test [1] was determined as 31.1%; in [6] it was 34.9%; in test [9], 51.1%; in [11] it was 34.3%; in test [15], 36.8%; in [16] it was 43.1%. In addition, the inhibition at 4 µg/mL in test [2] is 13.7%; in [3], 27.7%; in test [7], 27.4%; in test [10] it was 22.4%; in test [13], 0%; in test [14], 18.2%. In addition, the results for the inhibition at 40 µg/mL in test [4] and in test [5] were 13.9% and 27.4%, respectively. The inhibition at 80 µg/mL in test [8] stood at 43.1%; in [12] it was 45.4%.
On to `COc1cc2oc(-c3ccc(O)cc3)cc(=O)c2c(O)c1OC` [CIRSIMARITIN], for which the inhibition at 8 µg/mL turned out to be 52.6% in [1]; 6.6% in test [6]; 65.2% in [9]; 83.7% in test [11]; 39% in test [15]; 40.2% in test [16]. Also, the inhibition at 4 µg/mL in test [2] is 54%; in test [3] it was 0%; in test [7], 0%; in test [10], 26.9%; in test [13], 0%; in test [14] it was 47.9%. The results for the inhibition at 40 µg/mL in [4] and in [5] were 44.2% and 37.7%, respectively. In addition, the inhibition at 80 µg/mL in test [8] was found to be 65.3%; in [12], 50%.
For `C=C(C)[C@@H]1CC[C@]2(C(=O)O)CC[C@]3(C)[C@H](CC[C@@H]4[C@@]5(C)CC[C@H](O)C(C)(C)[C@@H]5CC[C@]43C)[C@@H]12` [BETULINIC ACID], the inhibition at 8 µg/mL amounted to 14% in test [1]; 75.2% in test [6]; 80.4% in test [9]; 63.4% in [11]; 18.7% in test [15]; 72.2% in test [16]. Moreover, the inhibition at 4 µg/mL in test [2] came to 75.6%; in [3] it was 0%; in test [7], 31.9%; in test [10] it was 12.7%; in test [13], 30.7%; in test [14], 38%. For the same compound, the inhibition at 40 µg/mL in test [4] is 15%; in test [5] it was 33.4%. Also, the inhibition at 80 µg/mL in test [8] came to 54.4%; in test [12] it was 22.6%.
